Measurements taken from patent publication US10080739B2, “Aryl imidazoles and their use as anti-cancer agents” (Aptose Biosciences Inc., priority 2003, dated 2018).
Where two headings read alike, the source gives them in different places.

Key:
[1] = tested on: human non-small cell lung cancer cells (H460); assay: XTT cell proliferation assay, H460 cells, 48 h; assay type: cell-based; conditions: read-out: % Survival
Description: (§1) Selected compounds of Formula I were tested for anti-cancer activity in vitro using a human colon carcinoma cells (HT-29) and human non-small cell lung cancer cells (H460). The cells were maintained in α-MEM medium (Wisent, St-Bruno, Qc) supplemented with 10% FBS, and grown at 37° C. in an atmosphere of 5% CO2. Cells were transferred onto 150 mm tissue culture plates and grown until sub-confluency (70-80%) prior to their use.
(§2) The anti-cancer activity in vitro was evaluated by a cell proliferation assay based on the ability of live cells to reduce the tetrazolium salt XTT to orange coloured compounds of formazan (XTT cell proliferation kit II, Roche Applied Science, Montreal, QC).
(§3) Approximately 4×10^3 colon cancer cells (HT-29) or 2×10^3 non-small cell lung cancer cells (NCI-H460) in 100 μl of complete culture medium were plated onto 96-well microtiter plates and incubated overnight at 37° C. The medium was then removed by inverting the plate and patting on a sterile absorbent cloth. Fifty μl of medium containing the test compound at either 25 or 100 μM, were added to the wells containing cells and incubated at 37° C. in an atmosphere of 5% CO2 for 48 h. Following incubation, 25 μl of an XTT reaction mixture (XTT at a final concentration of 0.3 mg/ml) were added to each well and the plates were incubated for a further 4 h. The absorbance of each sample was then determined at a wavelength of 490 nm/650 nm as reference. Each compound was tested in duplicate and the results are reported as averages.

[2] = tested on: human colon carcinoma cells (HT-29); assay: XTT cell proliferation assay, HT-29 cells, 48 h; assay type: cell-based; conditions: read-out: % Survival; for viability at 25 µM: 25 μM compound; for viability at 100 µM: 100 μM compound
Description: as §1, §2, §3

[3] = NCI-H460 cells, 25 μM compound, 48 h, XTT
[4] = NCI-H460 cells, 100 μM compound, 48 h, XTT

Structure (SMILES)	melting point [°C]	viability at 25 µM [1, 3] [%]	viability at 100 µM [1, 4] [%]	viability at 25 µM [2] [%]	viability at 100 µM [2] [%]	viability at 25 µM ([1]; NCI-H460, 48 h) [%]	viability at 100 µM ([1]; NCI-H460, 48 h) [%]
Nc1ccc2c3ccccc3c3nc(-c4c[nH]c5ccc(Br)cc45)[nH]c3c2c1	300 to 303						
Cc1[nH]c2ccccc2c1-c1nc2c3ccccc3c3ccc([N+](=O)[O-])cc3c2[nH]1	335 to 336						
Cc1[nH]c2ccccc2c1-c1nc(-c2cccc3ccccc23)c(-c2ccccc2)[nH]1 [Compound 180]	239 to 240						
Clc1ccc(-c2[nH]c(-c3c[nH]c4ccc(Br)cc34)nc2-c2ccccc2)cc1 [Compound 32]		15	2.9	22.7	7.7		
COC(=O)c1ccc2c(-c3nc(-c4ccccc4)c(-c4ccccc4)[nH]3)c[nH]c2c1 [Compound 83]		101	109	100	110		
Cc1[nH]c2ccccc2c1-c1nc(-c2ccc(Cl)cc2)c(-c2ccc(Cl)cc2)[nH]1 [Compound 19]	165 to 167	89.2	27.3	106	37.1		
COc1ccc(-c2nc(-c3c[nH]c4ccc(Br)cc34)[nH]c2-c2ccc(OC)cc2)cc1 [Compound 10]		26.9	2.7	25.8	7.6		
Brc1ccc(-c2nc(-c3c[nH]c4ccc(Br)cc34)[nH]c2-c2ccc(Br)cc2)cc1 [Compound 14]		83.5	1.8	55.2	3.8		
O=[N+]([O-])c1ccc2c3ccccc3c3nc(-c4c[nH]c5ccccc45)[nH]c3c2c1	365 to 366						
Cc1[nH]c2ccccc2c1-c1nc(-c2ccc(N(C)C)cc2)c(-c2ccc(N(C)C)cc2)[nH]1 [Compound 11]		98.8	102	108	94.3		
Cc1[nH]c2ccccc2c1-c1nc(-c2cccs2)c(-c2cccs2)[nH]1 [Compound 25]		99.5	89	63.9	39.8		
Cc1[nH]c2ccccc2c1-c1nc(-c2ccccc2)c(-c2ccc([N+](=O)[O-])cc2)[nH]1 [Compound 33]		73.4	9.4	56.1	10		
Brc1ccc2[nH]cc(-c3nc(-c4cccc5ccccc45)c(-c4ccccc4)[nH]3)c2c1 [Compound 181]	308 to 310						
Nc1ccc(-c2[nH]c(-c3c[nH]c4ccccc34)nc2-c2ccccc2)cc1 [Compound 182]	264 to 265						
Cc1[nH]c2ccccc2c1-c1nc(-c2ccc(-c3ccccc3)cc2)c(-c2ccc(-c3ccccc3)cc2)[nH]1 [Compound 40]		97.6	7.7	79.1	36.7		
Fc1ccc(-c2[nH]c(-c3c[nH]c4ccc(Br)cc34)nc2-c2ccccc2)cc1 [Compound 36]		24.5	2.4	31.6	4.7		
Cc1ccc(-c2nc(-c3c(C)[nH]c4ccccc34)[nH]c2-c2ccc(C)cc2)cc1 [Compound 23]		96.3	92.1	98.2	45.7		
Cc1[nH]c2ccccc2c1-c1nc(-c2ccc(Oc3ccccc3)cc2)c(-c2ccc(Oc3ccccc3)cc2)[nH]1 [Compound 38]		98.8	12.2	67	35.7		
c1ccc2c(-c3nc4c5ccccc5c5ccccc5c4[nH]3)c[nH]c2c1 [Compound 46]				16.1	4.5	11.5	1.9
COc1ccc(-c2nc(-c3c[nH]c4ccccc34)[nH]c2-c2ccccc2)cc1OC [Compound 152]	258 to 259						
CC(=O)n1c(-c2c(C)n(C(C)=O)c3ccccc23)nc(-c2ccccc2)c1-c1ccccc1 [Compound 5]		102	106	111	111		
O=[N+]([O-])c1ccc(-c2[nH]c(-c3c[nH]c4ccc(Br)cc34)nc2-c2ccccc2)cc1 [Compound 34]		17.4	7.6	22.8	10.8		
